Results as given in US10695347B2, “Pyrimidine derivative and use thereof” (Hubei Bio-Pharmaceutical Industrial Technological Institute …, priority 2015, dated 2020).

What was measured:
[1] = molecular target: ALK L1196M (Homo sapiens (Human), UniProt Q9UM73, L1196M); assay: Inhibition of ALK L1196M kinase activity (Caliper mobility shift); format: biochemical
Protocol: (§1) Inhibition of Compound I Against ALK Kinase Activity
(§2) • I. Preparation of 1× kinase buffer and stop buffer
(§3) 1) 1× Kinase Buffer • 50 mM HEPES. pH 7.5 • 0.0015% Brij-35 • 10 mM MgCl2 • 2 mM DTT • 2) stop buffer • 100 mM HEPES, pH 7.5 • 0.015% Brij-35 • 0.2% Coating Reagent #3 • 50 mM EDTA
(§4) 2. Prepare a Compound Solution to be Tested • Step 2.1 Dilute the compound to 50× of the final desired highest inhibitor concentration in reaction by 100% DMSO. Transfer 100 μl of this compound dilution to a well in a 96-well plate. For example, if desired highest inhibitor concentration is 1 μM, then prepare 50 μM of compound DMSO solution in this step.
(§5) Step 2.2 Further dilute said compound dilution by 3-fold in series, thus obtain 10 concentrations.
(§6) Step 2.3 Add 100 μl of 100% DMSO to two empty wells for no compound control and no enzyme control in the same 96-well plate. Mark the plate as source plate.
(§7) Step 2.4 Prepare an intermediate plate
(§8) Transfer 10 μl of each compound from the source plate to a new 96-well plate as the intermediate plate.
(§9) Add 90 μl of 1× kinase buffer to each well of the intermediate plate. Mix the compounds in the intermediate plate for 10 min on a shaker.
(§10) Transfer 5 μl of each well from the 96-well intermediate plate to a 384-well plate in duplicate. For example, A1 of the 96-well plate is transferred to A1 and A2 of the 384-well plate. A2 of the 96-well plate is transferred to A3 and A4 of the 384-well plate, and so on.
(§11) 4.1 Prepare a 2.5× kinase solution
(§12) Add kinase in 1× kinase base buffer, thus obtain the 2.5× kinase solution.
(§13) 4.2 Prepare a 2.5× peptide solution
(§14) 4.3 In each well of the assay plate obtained in step 3, there was 5 μL of the compound in 10% DMSO.
(§15) 4.4 Transfer the 2.5× enzyme solution to the assay plate.
(§16) 4.5 Incubate at room temperature for 10 min.
(§17) 4.6 Transfer the 2.5× peptide solution to the assay plate.
(§18) 4.7 Kinase reaction and stop
(§19) Incubate at 28° C. for 20 min.
(§20) Add 25 μl of stop buffer to stop reaction.
(§21) Conversion rate of the kinase was read via the Caliper.
(§22) 6.1 Copy conversion data from Caliper program.
(§23) 6.2 Convert conversion values to inhibition values with the following formula: Percent inhibition=(max−conversion)/(max−min)*100
(§24) where “max” stands for DMSO control; and “min” stands for low control.
(§25) 6.3 Fit the data in XLfit excel add-in version 4.3.1 and obtain IC50 values according to the following formula: Y=Bottom+(Top−Bottom)/[…].

[2] = test system: Ba/F3 EML4-ALK cells; assay: Suppression of Ba/F3 EML4-ALK cell proliferation (CellTiter-Glo); format: cell-based; settings: Ba/F3 EML4-ALK, 72 h; 3 days incubation
Text: Cell media: RPMI-1640 medium, fetal calf serum (FCS), antibiotics (Penicillin-Streptomycin), IL-3, puromycin
Cell line: Ba/F3 EML4-ALK
Assay reagent: Cell Viability Assay Kit Celliter-Glo
(§26) Others: a 96-well plate, a 384-well plate, DMSO
(§27) As the amount of ATP can indicate the number of living cells directly, the living cells in medium are able to be quantified by determining the ATP level. In our experiment, we use a cell viability assay kit to quantify the living cells, which utilizes UltraGlow luciferase to generate a stable glow signal in the presence of ATP which is produced by metabolism of living cells, such as respiration. Specifically, a reagent CellTiter-Glo™ was added into cell culture media, and then the luminescent intensity was determined to measure proliferation of cells, as the luminescent intensity is in direct proportion to the ATP level which correlates positively to the number of living cells. The test plate was assayed by the Envision (PE).
(§28) Step 3.1 Culturing test cells
Ba/F3 EML4-ALK cells were planted into a 384-well plate, with almost 300 cells per well. The plate was placed in a carbon dioxide incubator overnight.
(§29) Step 3.2 Preparation of the compounds to be tested
10 concentrations of the working solutions were obtained in duplicate by dilution in 3-fold series with BRAVO.
Step 3.3 Mixing the compound to be tested with the test cells
The compounds to be tested at individual working concentrations were transferred into corresponding wells in the 384-well plate in the step 3.1, with 5 μM as the initial working concentration, and then the 384-well plate was incubated in the carbon dioxide incubator for 3 days.
To each well of the 384-well plate was added the reagent Promega CellTiter-Glo, and incubated at room temperature for 10 minutes to stabilize the luminescence signal. The results were read by the PerkinElmer Envision Multi-mode Plate Reader.

[3] = test system: Karpas299 cells; assay: Suppression of Karpas299 cell proliferation (CellTiter-Glo); format: cell-based; settings: Homo sapiens, KARPAS-299, 72 h; 3 days incubation; read-out: Inhibition activity on Karpas299 cells IC50
Protocol: as §27, with “culture” for “medium”, “living-cell testing” for “cell viability assay”, “tested with” for “assayed by”
Cell media: RPMI-1640 medium, fetal calf serum (FCS), antibiotics (Penicillin-Streptomycin)
Assay reagent: Cell Viability Assay Kit CellTiter-Glo
as §26, §28
Karpas 299 cells were plated into a black 384-well plate, with 2500 cells in 45 μl cell suspension per well. The plate was placed in a carbon dioxide incubator overnight.
as §29
Each compound to be tested was dissolved in DMSO at 10 mM as the stock solution, which was left in a nitrogen-gas tank for storage.
After dilution of 10 μL stock solution (10 mM) into 2.5 mM as a starting working solution, 10 concentrations of the working solutions from 5 μM to 0.25 nM were obtained in duplicate by further dilution in 3-fold series with ECHO.
Step 3.3 Mixing the compound with the test cells
To each well of a new 96-well plate were added 49 μl medium and 1 μl of the compounds to be tested at individual working concentrations (10 concentrations in total). After oscillation,
5 μl of mixture in each well of the 96-well plate was transferred into corresponding wells in the 384-well plate in the step 3.1. The 384-well plate was incubated in the carbon dioxide incubator for 3 days.
To each well of the 384-well plate was added […] reagent Promega CellTiter-Glo. and incubated at room temperature for 10 minutes to stabilize the luminescence signal. The results were read with the PerkinElmer Envision Multi-mode Plate Reader.

[4] = molecular target: ALK (Homo sapiens (Human), UniProt Q9UM73); assay: Inhibition of ALK kinase activity (Caliper mobility shift); format: biochemical
Sequence of ALK (Q9UM73 19-1620): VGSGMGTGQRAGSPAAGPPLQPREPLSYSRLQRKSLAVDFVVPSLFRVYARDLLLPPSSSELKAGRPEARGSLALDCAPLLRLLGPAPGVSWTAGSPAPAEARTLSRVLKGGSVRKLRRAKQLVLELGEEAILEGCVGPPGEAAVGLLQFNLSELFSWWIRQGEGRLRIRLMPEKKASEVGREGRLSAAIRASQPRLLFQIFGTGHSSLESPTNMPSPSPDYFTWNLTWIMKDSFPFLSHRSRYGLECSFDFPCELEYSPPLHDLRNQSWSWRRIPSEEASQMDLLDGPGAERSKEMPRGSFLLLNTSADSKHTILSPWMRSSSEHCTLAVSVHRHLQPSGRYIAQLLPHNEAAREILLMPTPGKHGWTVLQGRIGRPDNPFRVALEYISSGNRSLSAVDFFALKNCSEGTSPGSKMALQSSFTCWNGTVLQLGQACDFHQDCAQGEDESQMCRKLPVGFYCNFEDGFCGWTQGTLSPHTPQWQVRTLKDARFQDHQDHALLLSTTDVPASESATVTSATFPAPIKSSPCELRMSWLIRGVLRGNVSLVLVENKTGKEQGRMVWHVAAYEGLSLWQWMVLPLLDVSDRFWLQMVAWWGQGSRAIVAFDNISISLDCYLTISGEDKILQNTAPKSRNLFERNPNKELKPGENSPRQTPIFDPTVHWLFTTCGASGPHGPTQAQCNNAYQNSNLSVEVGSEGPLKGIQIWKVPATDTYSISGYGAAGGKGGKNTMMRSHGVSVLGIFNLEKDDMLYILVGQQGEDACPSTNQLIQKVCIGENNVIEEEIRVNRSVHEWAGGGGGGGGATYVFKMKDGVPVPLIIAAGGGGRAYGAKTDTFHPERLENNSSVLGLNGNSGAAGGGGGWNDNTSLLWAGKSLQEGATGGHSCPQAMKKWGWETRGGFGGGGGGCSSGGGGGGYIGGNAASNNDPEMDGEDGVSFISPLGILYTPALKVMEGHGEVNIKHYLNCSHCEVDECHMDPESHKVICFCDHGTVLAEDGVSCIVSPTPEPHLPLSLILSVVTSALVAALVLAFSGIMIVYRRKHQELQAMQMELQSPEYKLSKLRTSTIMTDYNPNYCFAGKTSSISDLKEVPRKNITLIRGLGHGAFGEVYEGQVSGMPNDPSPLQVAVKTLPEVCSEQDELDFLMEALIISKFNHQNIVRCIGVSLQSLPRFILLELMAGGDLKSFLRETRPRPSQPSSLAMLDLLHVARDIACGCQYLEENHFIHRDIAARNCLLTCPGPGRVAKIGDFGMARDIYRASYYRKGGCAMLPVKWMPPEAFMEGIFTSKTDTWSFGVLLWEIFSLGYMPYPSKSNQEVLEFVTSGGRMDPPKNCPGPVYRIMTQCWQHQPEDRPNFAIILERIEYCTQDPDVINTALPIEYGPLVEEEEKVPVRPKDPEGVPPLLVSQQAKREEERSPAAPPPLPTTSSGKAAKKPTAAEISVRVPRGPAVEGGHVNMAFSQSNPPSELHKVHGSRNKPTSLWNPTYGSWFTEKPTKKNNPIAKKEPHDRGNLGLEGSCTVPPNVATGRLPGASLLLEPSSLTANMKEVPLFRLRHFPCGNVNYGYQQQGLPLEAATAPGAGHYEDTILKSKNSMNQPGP
Protocol: as §1, §2, §3, §4, §5, §6, §7, §8, §9, §10, §11, §12, §13, §14, §15, §16, §17, §18, §19, §20, §21, §22, §23, §24, §25

Sequence of ALK L1196M (Q9UM73 19-1620 L1196M): as the sequence (Q9UM73 19-1620) above, with L1178M counted along it

SMILES: COc1cc(N2CCC(N3CC(C)OC(C)C3)CC2)ccc1Nc1ncc(Cl)c(Nc2cccnc2S(=O)(=O)C(C)C)n1 (stereo not drawn) [Compound I-12]
- IC50 [1]: 1 to 10 nM
- IC50 [2]: < 20 nM
- IC50 [3]: 50 to 100 nM
- IC50 [4]: 1 to 10 nM

SMILES: COc1cc(N2CCC(N3CC(C)OC(C)C3)CC2)ccc1Nc1ncc(Cl)c(Nc2ccccc2S(=O)(=O)C(C)C)n1 (stereo not drawn) [Compound I-17]
- IC50 [1]: 1 to 10 nM
- IC50 [2]: < 20 nM
- IC50 [3]: < 50 nM
- IC50 [4]: 1 to 10 nM

SMILES: COc1cc(N2CCC(N3CCC(N(C)C)CC3)CC2)ccc1Nc1ncc(Cl)c(Nc2ccsc2S(=O)(=O)C(C)C)n1 [Compound I-18]
- IC50 [1]: 1 to 10 nM
- IC50 [2]: < 20 nM
- IC50 [3]: < 50 nM
- IC50 [4]: 1 to 10 nM

SMILES: COc1cc(N2CCN(C(C)C)CC2)ccc1Nc1ncc(Cl)c(Nc2cccnc2S(=O)(=O)C(C)C)n1 [Compound I-23]
- IC50 [1]: 1 to 10 nM
- IC50 [2]: < 20 nM
- IC50 [3]: < 50 nM
- IC50 [4]: 1 to 10 nM

SMILES: COc1cc(C2=CCN(C(C)C)CC2)c(C)cc1Nc1ncc(Cl)c(Nc2cccnc2S(=O)(=O)C(C)C)n1 [Compound I-80, 5-chloro-N^2-(4-(1-isopropyl-1,2,3,6-tetrahydropyridin-4-yl)-2-methoxy-5-methylphenyl)-N^4-(2-(isopropylsulfonyl)pyridin-3-yl) pyrimidine-2,4-diamine]
- IC50 [1]: 1 to 10 nM
- IC50 [2]: 20 to 100 nM
- IC50 [3]: < 50 nM
- IC50 [4]: 1 to 10 nM

SMILES: CC(C)Oc1cc(N2CCC(N(C)C)CC2)ccc1Nc1ncc(Cl)c(Nc2ccsc2S(=O)(=O)C(C)C)n1 [Compound I-82, 5-chloro-N^2-(4-(4-(dimethylamino)piperidin-1-yl)-2-isopropoxyphenyl)-N^4-(2-(isopropylsulfonyl)thiophen-3-yl) pyrimidine-2,4-diamine]
- IC50 [1]: < 1 nM
- IC50 [2]: 20 to 100 nM
- IC50 [3]: < 50 nM
- IC50 [4]: < 1 nM

SMILES: COc1cc(C2=CCN(C)CC2)ccc1Nc1ncc(Cl)c(Nc2cccnc2S(=O)(=O)C(C)C)n1 [Compound I-84, 5-chloro-N^4-(2-(isopropylsulfonyl)pyridin-3-yl)-N^2-(2-methoxy-4-(1-methyl-1,2,3,6-tetrahydropyridin-4-yl)phenyl) pyrimidine-2,4-diamine]
- IC50 [1]: 1 to 10 nM
- IC50 [2]: 20 to 100 nM
- IC50 [3]: < 50 nM
- IC50 [4]: 1 to 10 nM

SMILES: COc1cc(C2=CCN(C(C)C)CC2)ccc1Nc1ncc(Cl)c(Nc2cccnc2S(=O)(=O)C(C)C)n1 [Compound I-85, 5-chloro-N^2-(4-(1-isopropyl-1,2,3,6-tetrahydropyridin-4-yl)-2-methoxyphenyl)-N^4-(2-(isopropylsulfonyl)pyridin-3-yl) pyrimidine-2,4-diamine]
- IC50 [1]: 1 to 10 nM
- IC50 [2]: 20 to 100 nM
- IC50 [3]: < 50 nM
- IC50 [4]: 1 to 10 nM

SMILES: COc1cc(C2=CCN(C(C)C)CC2)ccc1Nc1ncc(Cl)c(Nc2ccsc2S(=O)(=O)C(C)C)n1 [Compound I-86, 5-chloro-N^2-(4-(1-isopropyl-1,2,3,6-tetrahydropyridin-4-yl)-2-methoxyphenyl)-N^4-(2-(isopropylsulfonyl)thiophen-3-yl) pyrimidine-2,4-diamine]
- IC50 [1]: < 1 nM
- IC50 [2]: < 20 nM
- IC50 [3]: < 50 nM
- IC50 [4]: < 1 nM

SMILES: COc1cc(N2CCN(C(C)C)CC2)c(C)cc1Nc1ncc(Cl)c(Nc2cccnc2S(=O)(=O)C(C)C)n1 [Compound I-88]
- IC50 [1]: 1 to 10 nM
- IC50 [2]: 20 to 100 nM
- IC50 [3]: 50 to 100 nM
- IC50 [4]: 1 to 10 nM

SMILES: CC(C)Oc1cc(N2CCC(N(C)C)CC2)ccc1Nc1ncc(Cl)c(Nc2cccnc2S(=O)(=O)C(C)C)n1 [Compound I-91]
- IC50 [1]: 1 to 10 nM
- IC50 [2]: < 20 nM
- IC50 [3]: 50 to 100 nM
- IC50 [4]: 1 to 10 nM

SMILES: CCOc1cc(N2CCC(N(C)C)CC2)ccc1Nc1ncc(Cl)c(Nc2cccnc2S(=O)(=O)C(C)C)n1 [Compound I-92]
- IC50 [1]: 1 to 10 nM
- IC50 [2]: < 20 nM
- IC50 [3]: 50 to 100 nM
- IC50 [4]: 1 to 10 nM
